One series in a line: in vitro. To be noted: human, Caco-2.
For series [1], the system named is MCF-7 cells (human breast cancer cells). Kind of series: MCF-7 cell proliferation inhibitory assay (CellTiter-Glo). Type of series: cell-based. Here is the method:
• 1). […] Resuspend an appropriate amount of cell suspension to 4000 cells/100 μL according to the count, mixed well and then put the corresponding number of cells into a 96-well plate by pipette. • 3). Each hole of the edge was sealed with 100 μL DPBS and put into an incubator for culture. • 4). Day 1 drug addition: Prepare the storage solution of the compound to be tested 1 hour in advance. 24 h after plating, the culture medium was gradiently diluted to a concentration twice the final concentration of each group. Take out the plated cells from the incubator and add 100 μL of the corresponding 2-fold concentration medium to each well by pipette.
Day 1 detected: Take out the plate to be tested and an appropriate amount of CTG in advance and rewarm it at room temperature in the dark. 50 μL of CTG was added to each well at 24 h. Shake with the oscillator for 5 minutes, and after balancing in the dark for 5 minutes, detect the luminescence value with a microplate reader; The mixture was shaken for 5 min, and after equilibration in the dark for 5 min, the luminescence value was detected with ELISA. • 6). Day 4 detection: Take an appropriate amount of CTG 1 h in advance and rewarm it at room temperature in the dark. At the same time, take out the plate to be tested from the incubator and leave it to equilibrate at room temperature for 30 minutes; 72 h after adding the drug, 100 μL of culture medium was sucked out with pipette carefully from each cell well, and 50 μL of CTG was added. The mixture was shaken for 5 min, and after equilibration in the dark for 5 min, the luminescence value was detected with ELISA analyzer. • 7). Data analysis and processed.
Collect data and convert it into survival rate: Inhibition rate (%)=(100−(OD value of compound-OD value on the first day)/(OD value of control well-OD value on the first day))×100%
(§1) Input the compound into graphpad prism to obtain the corresponding IC50 value.
In general terms: Cellular ATP, detected with luciferase, serves as a proxy for viable cell number.

Series [2] concerns MDA-MB-231 cells (human breast cancer cells). The series can be described thus: MDA-MB-231 cell proliferation inhibitory assay (CellTiter-Glo). Type of series: cell-based. The procedure:
(§2) • 1). […] Resuspend an appropriate amount of cell suspension to 3000 cells/100 μL according to the count, mixed well and then put the corresponding number of cells into a 96-well plate by pipette. • 3). Each hole of the edge was sealed with 100 μL DPBS and put into an incubator for culture. • 4). Day 1 drug addition: Prepare the storage solution of the compound to be tested 1 hour in advance. 24 h after plating, the culture medium was gradiently diluted to a concentration twice the final concentration of each group. Take out the plated cells from the incubator and add 100 μL of the corresponding 2-fold concentration medium to each well by pipette. • 5). Day 1 detected: Take out an appropriate amount of CTG 1 h in advance and the plate was allowed to equilibrate at room temperature for 30 min. 100 μL of CTG was added to each well and shaken for 5 mins, and then standed in the dark for 5 mins, the luminescence value was detected by ELISA. • 6). Day 4 detection: Take an appropriate amount of CTG 1 h in advance and rewarm it at room temperature in the dark. At the same time, take out the plate to be tested from the incubator and leave it to equilibrate at room temperature for 30 minutes; 72 h after adding the drug, 100 μL of culture medium was sucked out with pipette carefully from each cell well, and 100 μL of CTG was added. The mixture was shaken for 5 min, and after equilibration in the dark for 5 min, the luminescence value was detected with ELISA. • 7). Analyze data and write detailed experimental records.
as §1

The test system of series [3] is MDA-MB-435s cells (human melanoma cells). The series can be described thus: MDA-MB-435s cell proliferation inhibitory assay (CellTiter-Glo). Type of series: cell-based. Here is the method:
as §2
Collect data and convert it into survival rate: Inhibition rate (%)=(100−(OD value of compound−OD value on the first day)/(OD value of control well-OD value on the first day))×100%
as §1

Series [4] can be described thus: Caco-2 cell membrane permeability assay. To be noted: human, Caco-2.
Method: (§3) Day 0 plated: After digesting the target cells in the logarithmic growth phase, make a single cell suspension and count. • 2). Took out the corresponding number of transwell chambers and placed them in a 24-well plate, added 200 μL PBS to the upper chamber, incubated for 10 mins, and removed the PBS from the upper chamber by pipette. • 3). According to the count, took an appropriate amount of cell suspension and resuspended it to 5000 cells/200 μL, mixed well and added it to the upper chamber of the transwell, and added 600 μL of complete culture medium to the lower chamber. • 4). medium exchanged on DAY1: The upper chamber and the lower chamber were exchanged with complete culture medium containing 0.1 mg/mL ascorbic acid for 9 days continuously, and the resistance value of membrane expansion was measured. […] Collected the liquid in the upper chamber and the lower chamber for detection. • 7). Calculated Papp according to the formula “Papp=dQ/(dt×A×C0)”. dQ/dt was the transport amount of drugs per unit time, which was the slope of the linear regression of cumulative drug release amount Q versus time t. A was the bottom area of the Transwell orifice plate membrane, and the bottom area was 0.33 cm^2 of 24-well plate in this experiment. Co was the initial concentration of drugs in the upper chamber (μg mL-1).
Series [5] has as its system Caco-2 cells (human colorectal adenocarcinoma cells).
Method: as §3
Series [6] shares this test system. The series can be described thus: Caco-2 cell membrane permeability assay. To be noted: Caco-2 monolayer, apical to basolateral, 100 μg/mL, 180 min. Background: Passage across Caco-2 layers is used to estimate intestinal permeability.
Method: as §3
Where [7] appears, read: Homo sapiens, MCF7, MCF-7 cells, 72 h after adding the drug, Table 1, read-out: Proliferation inhibition IC50.
The mark [8] stands for this setting: Homo sapiens, MDA-MB-231 cells, 72 h after adding the drug, Table 2, read-out: Proliferation inhibition IC50.
Where [9] appears, read: Homo sapiens, MDA-MB-435s cells, 72 h after adding the drug, Table 3, read-out: Proliferation inhibition IC50.
Where [10] appears, read: Homo sapiens, MCF7, 72 h, read-out: Proliferation inhibition IC50.
The mark [11] stands for this setting: Homo sapiens, MDA-MB-231, 72 h, read-out: Proliferation inhibition IC50.
Where [12] appears, read: Homo sapiens, MDA-MB-435S, 72 h, read-out: Proliferation inhibition IC50.
Where [13] appears, read: Homo sapiens, MCF7, read-out: MCF-7 Proliferation inhibition IC50.
Where [14] appears, read: Homo sapiens, MDA-MB-231, read-out: MDA-MB-231 Proliferation inhibition IC50.
The mark [15] stands for this setting: Homo sapiens, MDA-MB-435S, read-out: MDA-MB-435s Proliferation inhibition IC50.

Where a name gives a salt, the structure may show the parent alone. Read-outs that look alike come from different tables or passages of the source.

Broadly, the Papp A→B is how fast a substance crosses the layer from the apical side.

Method for in vitro: as §3

Compound `CC[C@@]1(O)C(=O)OCc2c1cc1n(c2=O)Cc2c-1nc1cc(F)c(C)cc1c2CN` [Compound A, reference compound] had a Papp A→B at 180 min, 100 μg/mL in “in vitro” of 68.8 ×10⁻⁶ cm/s. Also, the IC50 in series [1] (setting [7]) is 15.3 nM; in series [1] (Homo sapiens, MCF7, MCF-7 cells, comparative Table 4, read-out: MCF-7 Proliferation inhibition IC50) it was 15.3 nM; in series [2] (setting [8]), 260 nM; in series [2] (Homo sapiens, MDA-MB-231 cells, comparative Table 4, read-out: MDA-MB-231 Proliferation inhibition IC50), 260 nM; in series [3] (setting [9]), 21.4 nM; in series [3] (Homo sapiens, MDA-MB-435s cells, comparative Table 4, read-out: MDA-MB-435s Proliferation inhibition IC50), 21.4 nM.
`CC[C@@]1(O)C(=O)OCc2c1cc1n(c2=O)Cc2c-1nc1cc(F)c(C)c3c1c2[C@@H](N)CC3` [Compound B, Exatecan, reference compound] had a Papp A→B at 180 min, 100 μg/mL in series [4] of 68.6 ×10⁻⁶ cm/s. The IC50 in series [1] (setting [10]) amounted to 5.5 nM; in series [2] (setting [11]), 30.9 nM; in series [3] (setting [12]), 2.52 nM.
In the same order, the values of `CC[C@@]1(O)C(=O)OCc2c1cc1n(c2=O)Cc2c-1nc1cc(F)c(C)c3c1c2[C@@H](NC(=O)CO)CC3` [Dxd, reference compound] are 42 ×10⁻⁶ cm/s, 20.3 nM, 101 nM and 5.12 nM.
For the compound `CC[C@@]1(O)C(=O)OCc2c1cc1n(c2=O)Cc2c-1nc1cc(F)c(C)cc1c2[C@@H](C)N` [Example 1], the Papp A→B at 180 min, 100 μg/mL in “in vitro” is 100 ×10⁻⁶ cm/s. Moreover, the IC50 in series [1] (setting [10]) came out at 5.2 nM; in series [1] (setting [13]), 5.2 nM; in series [2] (setting [11]), 8.2 nM; in series [2] (setting [14]), 8.2 nM; in series [3] (setting [12]), 0.75 nM; in series [3] (setting [15]), 0.75 nM. The “Permeability compared with reference compounds (in words)” value in series [5] was “obvious advantages over SN38 and exatecan”.
`CC[C@@]1(O)C(=O)OCc2c1cc1n(c2=O)Cc2c-1nc1cc(F)c(C)cc1c2CO` [Example 12b] yielded a Papp A→B at 180 min, 100 μg/mL in the series “in vitro” of 49.3 ×10⁻⁶ cm/s. The IC50 in series [1] (setting [10]) was 16.5 nM; in series [1] (setting [13]) it was 16.5 nM; in series [2] (setting [11]) it was 20.2 nM; in series [2] (setting [14]) it was 20.2 nM; in series [3] (setting [12]), 3.2 nM; in series [3] (setting [15]), 3.2 nM.
On to `CC[C@@]1(O)C(=O)OCc2c1cc1n(c2=O)Cc2c-1nc1cc(F)c(C)cc1c2[C@H](C)O` [Example 12c], for which, in the series “in vitro”, the Papp A→B at 180 min, 100 μg/mL was 96 ×10⁻⁶ cm/s. Also, the IC50 in series [1] (setting [10]) is 3.5 nM; in series [2] (setting [11]), 6.6 nM; in series [3] (setting [12]), 0.7 nM. In addition, the “Permeability compared with reference compounds (in words)” value in series [5] is “obvious advantages over SN38 and exatecan”.
`CC[C@@]1(O)C(=O)OCc2c1cc1n(c2=O)Cc2c-1nc1cc(F)c(C)cc1c2[C@@H](C)NC(=O)CO` [Example 13b] came in with a Papp A→B at 180 min, 100 μg/mL in “in vitro” of 56.1 ×10⁻⁶ cm/s. Also, the IC50 in series [1] (setting [7]) worked out at 25.6 nM; in series [2] (setting [11]) it was 130 nM; in series [3] (setting [12]), 3.9 nM.
With `CC[C@@]1(O)C(=O)OCc2c1cc1n(c2=O)Cc2c-1nc1cc(F)c(C)cc1c2[C@H](C)N1CCNCC1` [Example 41a], the IC50 came out at 28.6 nM in series [1] (setting [10]), 100 nM in series [2] (setting [11]) and 5.12 nM in series [3] (setting [12]).
Regarding `CC[C@@]1(O)C(=O)OCc2c1cc1n(c2=O)Cc2c-1nc1cc(F)c(C)cc1c2[C@@H](C)N1CCNCC1` [Example 41b], the IC50 in series [1] (setting [10]) is 19.6 nM; in series [2] (setting [11]) it was 30.5 nM; in series [3] (setting [12]), 3.86 nM.
In the same order, the values of `CC[C@@]1(O)C(=O)OCc2c1cc1n(c2=O)Cc2c-1nc1cc(F)c(C)cc1c2[C@H](C)N1CCN(C)CC1` [Example 42a] are 14.6 nM, 125 nM and 3.21 nM.
As to `CC[C@@]1(O)C(=O)OCc2c1cc1n(c2=O)Cc2c-1nc1cc(F)c(C)cc1c2[C@@H](C)N1CCN(C)CC1` [Example 42b], the figures for the IC50 in series [1] (setting [10]), in series [2] (setting [11]) and in series [3] (setting [12]) were 6.6 nM, 75.6 nM and 2.56 nM, respectively.
Regarding `[2H]C([2H])([2H])[C@H](N)c1c2c(nc3cc(F)c(C)cc13)-c1cc3c(c(=O)n1C2)COC(=O)[C@]3(O)CC` [Example 43a], the IC50 stood at 5.1 nM in series [1] (setting [7]), 16.8 nM in series [2] (setting [8]) and 3.31 nM in series [3] (setting [9]).
In the same order, the values of `[2H]C([2H])([2H])[C@@H](N)c1c2c(nc3cc(F)c(C)cc13)-c1cc3c(c(=O)n1C2)COC(=O)[C@]3(O)CC` [Example 43b] are 2.7 nM, 8 nM and 0.65 nM.
`COCCc1ccc(OCC(O)CNC(C)C)cc1` (centres unmarked) [Metoprolol Tartrate] registered a Papp A→B at 180 min, 100 μg/mL in series [4] of 193 ×10⁻⁶ cm/s.
With `CCc1c2c(nc3ccc(O)cc13)-c1cc3c(c(=O)n1C2)COC(=O)[C@]3(O)CC` [SN38, reference compound], the “Permeability Coefficient (Papp 10^−6 cm/s) A→B” value in series [6] is 46.8 10^−6 cm/s. Also, the IC50 is 22.5 nM in series [1] (MCF-7 cells, 72 h after adding the drug, Table 1, read-out: Proliferation inhibition IC50); 124 nM in series [2] (MDA-MB-231 cells, 72 h after adding the drug, Table 2, read-out: Proliferation inhibition IC50); 6.89 nM in series [3] (MDA-MB-435s cells, 72 h after adding the drug, Table 3, read-out: Proliferation inhibition IC50).

The values above are taken from patent publication US20240376120A1, “CAMPTOTHECIN COMPOUND, PREPARATION METHOD THEREFOR AND USE THEREOF” (priority 2021, published 2024).
